Source: patent USRE39420E1, “1,2-Diphenylpyrrole derivatives, their preparation and their therapeutic uses” (Sankyo Company, Limited, priority 1996, dated 2006)

Experiments:
[1] = tested on: TNFα production in human peripheral monocytes; assay: Inhibitory effect on TNFα production in LPS-stimulated human peripheral monocytes; assay type: cell-based; conditions: Monocyte, LPS 10 μg/ml, 20 hours
Method: (§1) (1) Peripheral blood was collected from healthy human volunteers in the presence of heparin. After mixing it with an equal volume of phosphate-buffered saline (PBS, Nissui Pharmaceutical), the mixture was layered onto Ficoll Paque medium (Pharmacia) at the rate of 2:1 and centrifuged at 520×g at 25° C. for 20 minutes. After centrifugation, the monocyte layer was removed and suspended in RPMI 1640 (Nissui Pharmaceutical) containing 10% fetal calf serum (FCS). The monocytes were washed once with the same medium, placed in a plastic Petri dish, pre-treated with human plasma and incubated for 2 hours in the presence of 5% CO2 to cause them to adhere to the dish. After incubation, the Petri dish was washed twice with PBS to remove the non-adherent cells. Thereafter, PBS containing 5% FCS and 0.2% EDTA was added to the Petri dish and the dish was allowed to stand undisturbed for 15 minutes at 4° C. The monocytes were recovered from the dish by pipetting. The cells were finally suspended in RPMI 1640 at a concentration of 1.25×10^5 cells/ml. (2) Culture of Human Monocytes
(§2) A 40 μl solution of the test compound and 40 μl of lipopolysaccharide (LPS; E. coli, 0.26:B6, Difco), adjusted to a final concentration of 10 μg/ml, were added to 320 μl of cell suspension. The resulting mixture was then cultured for 20 hours in the presence of 5% CO2 and the supernatant was removed at the end of cultivation to assay IL-1β and TNFα. The test compound was dissolved in dimethyl sulfoxide and diluted by a factor of 100 with FCS to reach 10 times the final concentration (the final concentrations of dimethyl sulfoxide and FCS were 0.1% and 10%, respectively).
(§3) The amount of IL-1β was measured with a commercially available ELISA kit (Cayman), after diluting the supernatant medium by a factor of 15 or 30 with the ELISA buffer. The amount of TNFα was similarly measured by a ELISA kit (Genzyme) after diluting the supernatant by a factor of 2.
(§4) The IC50 was calculated from the regression line determined by the inhibition rates and the concentrations of the test compound.

[2] = tested on: IL-1β production in human peripheral monocytes; assay: Inhibitory effect on IL-1β production in LPS-stimulated human peripheral monocytes; assay type: cell-based; conditions: Monocyte, LPS 10 μg/ml, 20 hours
Method: as §1, §2, §3, §4

yeast-induced fever = assay: Antipyretic effect on yeast-induced fever; assay type: in vivo, Wistar-Imamichi rats; conditions: Dose: 0.4 mg/kg, oral; mean of 1 and 2 hours after dosing
Method: The method of Roszkowski et al. [J. Pharmacol. Exp. Ther. 179, 114, (1971)] was slightly modified to perform the test. The test compound was administered in the same manner as in Experiment 3. Male Wistar-Imamichi rats (6 week old, body weights: approximately 120 g) were used in the test. Yeast (Brewer's yeast, Sigma) was suspended in physiological saline to a concentration of 25%, finely crushed in an agate mortar, and injected subcutaneously into the backs of the rats under ether-anesthesia at a volume of 2 ml/rat. The rats were fasted after the injection of yeast. On the following day (19 hours after the yeast injection), a catheter-type thermistor thermometer (Japan Koden, MGA III) was inserted approximately 5 cm into the rectum to measure the temperature of the animals. […] Rectal temperatures were measured 1 and 2 hours after administration of the test compound, and fever temperature was calculated by subtracting the normal temperature of healthy animals measured simultaneously. Inhibition rate of the group treated with the compound relative to the control group was calculated by using the mean value at 1 and 2 hours after dosing.

[3] = tested on: yeast-inflamed pain in rats; assay: Analgesic effect on yeast-inflamed pain in rats (Randall-Selitto method); assay type: in vivo, Wistar-Imamichi rats; conditions: Rattus norvegicus, oral, pain threshold 0.5, 1 and 2 hours after administration, read-out: Efficacy Rate (No. of animals in which drug was effective/No. of animals used in test) (converted)
How it was run: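 Male Wistar-Imamichi rats were fasted 16 h and given compound orally in 0.5% tragacanth. Paw inflammation was induced by subcutaneous 20% brewer's yeast, and pressure pain threshold was measured from 4.5 h at 0.5, 1 and 2 h. An animal counted as responding if its threshold exceeded twice the control mean, and efficacy rate followed Blake's method.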

[4] = tested on: scald-induced Pain in rats; assay: Scald-induced pain test; assay type: in vivo, Wistar-Imamichi rats; conditions: oral; pain response time, mean of 1 and 2 hours after dosing
Method: The test was conducted in accordance with the method of Iizuka and Tanaka [Jpn. J. Pharmacol. 70, 697, (1967)]. The test compound was administered in the same manner as in Experiment 3. Male Wistar-Imamichi rats (4-5 week old, body weights: approximately 100 g) were used after fasting for 16 hours. The right hind foot of the animal was immersed in hot water at 57° C. for 6 seconds to induce scald under ether-anesthesia. Two hours later, the scald foot of the rat was irritated by immersing in hot water at 40° C. for 5 seconds, and the animal was returned to the cage. […] Lifting up the scalded foot or licking it without coming in contact with the metal cage were considered to be pain responses. Pain response time was determined as the total time of the pain response during the 30-second observation period. […] Pain response time was again measured 1 and 2 hours after dosing and the mean value was determined. Using the mean values, inhibition rates were calculated relative to the control group. ID50 was calculated from the regression line determined by the inhibition rates and the doses.

| Structure (SMILES) | inhibition at 10 µM [1] | inhibition at 10 µM [2] | Inhibition Rate (%) (yeast-induced fever) | responders at 12.5 mg/kg [3] | ID50 [4] |
| --- | --- | --- | --- | --- | --- |
| Cc1ccc(-c2ccccc2)n1-c1ccc(S(N)(=O)=O)cc1 [Compound A, 5-methyl-2-phenyl-1-(4-sulfamoylphenyl)pyrrole, reference compound] | 13.9% | 24.2% | – | – | – |
| COc1ccc(-c2cc(C)cn2-c2ccc(S(N)(=O)=O)cc2)cc1 [Example 52, 2-(4-Methoxyphenyl)-4-methyl-1-(4-sulfamoylphenyl)pyrrole] | – | – | 82% | 100% | 1.1 mg/kg |
